Results taken from patent US20220401423A1, “METHODS FOR TREATING INFLAMMATORY BOWEL DISEASE” (Angion Biomedica Corp., priority 2019, published 2022).

How the values were obtained:
[1] = tested on: Acetic acid-induced colitis; experiment: Acetic acid (AA) induced colitis mouse model; type: in vivo
Text: Acetic acid-induced colitis is a common experimental animal model for IBD. Animals treated with acetic acid develop many pathological and histopathological characteristics in common with human ulcerative colitis. Rectal administration of acetic acid damages the mucosal epithelium and induces ulcerative colitis. The severity of the mucosal lesions that develop in acetic acid-induced colitis depends on the acetic acid concentration and the length of exposure. For example, injection of 25% acetic acid (AA) into the gastric lumen causes larger ulcerative lesions than injection of 5% acetic acid. Different concentrations of acetic acid and different exposure times have been reported to induce IBD in a rat model. Transmural necrosis in all layers of the bowel wall, severe neutrophil infiltration of the intestinal tissue, goblet cell depletion, edema, and submucosal ulceration are common manifestations of this model. Bloody diarrhea, reduction of the intestinal mucus, decreased nucleic acid (DNA and RNA) and total protein content, and increased colon weight and vascular permeability have also been observed. […] Acetic acid-induced colitis is also associated with changes NF-κB, inhibitor of κB (IκB) and IκB kinase expression.
Male CD-1 mice were infused with 4% AA in saline in 150 μL volume through rectal enema under isoflurane anesthesia. A sham group (n=6) received an equivalent volume of saline.
The remaining AA-treated mice (n=9 for each group) were then randomized to vehicle and/or Compound 1 treatment at 50 mg/kg, PO, BID for 3 days.

TNBS-induced colitis [2] = experiment: TNBS-induced IBD/acute colitis mouse model, dose response (Example 3); type: in vivo
Text: Intracolonic administration of TNBS (2,4,6-trinitrobenzenesulfonic acid)/ethanol induces a severe illness characterized by bloody diarrhea and a dramatic loss of body weight during the first week with increased colon damage score (Mateus, V., et al. Clin. Exp. Gastroenterol. 2018; 11:325-334). TNBS-induced colitis, characteristic of acute colitis and the early phase of IBD, is a commonly utilized animal model in rodents that shares significant properties with human Crohn's disease. Advantages of this model include reproducibility and technical simplicity (Filipescu, I. E., et al. PLoS One 2018 Aug. 23; 13(8):e0202929). The use of TNBS-induced colitis has been valuable in elucidating the mechanisms that mediate disease immune-pathogenesis. TNBS-induced colitis is a well-validated animal model to assess compounds with potential therapeutic effects such as anti-TNFα, corticosteroids, natural compounds and traditional medicine (Mateus 2018; Filipescu 2018; Wirtz, S. et al. Nat. Protoc. 2017 July; 12(7):1295-1309). Compound 1 was therefore tested in the well-established model of TNBS-induced IBD/Acute Colitis.
In this IBD model, 2,4,6-trinitrobenzenesulfonic acid (TNBS) was used to induce disease. The inflammatory bowel disease (IBD)/acute colitis model was conducted in male CD-1 mice, body weights 30-35 grams, from Charles River Laboratories (CRL). After receipt from the vendor, animals were acclimatized to the animal facility at least 5 days following the animal facility standard operating procedures. All animals were fed the normal chow diet, had access to water ad libitum and housed in a single room of the animal facility with a 12:12 hr light-dark cycle and independent ventilation, temperature and humidity control.
Compound 1 was dissolved in distilled water at 0.9 mg/mL, 2.7 mg/mL and 8.1 mg/mL, and 200 μL was administered via oral gavage into each mouse.
Male CD-1 mice were starved overnight. Then, mice (n=33) were infused with […] (2 mg/mouse) in 50% ethanol in a 100 μL volume via rectal enema under isoflurane anesthesia. A sham group (n=6) received an equal volume of 50% ethanol. […] Remaining Sham (n=4) and TNBS mice (n=7/group) were randomized to vehicle or Compound 1 treatment at 5 mg/kg, 15 mg/kg, and 45 mg/kg, PO, BID for 4 days.
After 4 days of Compound 1 or vehicle treatment, mice were sacrificed. Body weight (FIG. 5), colon length (FIG. 6 and FIG. 8), colon weight (FIG. 7), and gross morphological score/disease severity scores (FIG. 9; normal=0 and severe=4) were recorded. Blood/serum was collected. The mid and distal part of the colon was fixed in 10% neutral buffered formalin and the proximal part of the colon was snap frozen in liquid nitrogen and stored at minus 80° C. until use.
Histological scoring. After overnight fixation in formalin, tissues were dehydrated (graded alcohols) and cleared (xylene) before being embedded in paraffin wax. Sections of tissue were cut and stained with hematoxylin and eosin (H & E) and scored in a blinded manner (FIG. 10). Histological scoring was based on a semi-quantitative scoring system as published (Lab Invest. 1993 August; 69(2):238-49). The following were ranked: the extent of the destruction of normal mucosal architecture (0, normal; 1, 2, and 3, mild, moderate, and extensive damage, respectively), presence and degree of cellular infiltration (0, normal; 1, 2, and 3, mild, moderate, and transmural infiltration, respectively), extent of muscle thickening (0, normal; 1, 2, and 3, mild, moderate, and extensive thickening, respectively), crypt damage/goblet cell depletion (0, no loss, 1, 2, 3 for mild, moderate and extensive loss of goblet cells respectively (FIG. 11). The scores for each feature were summed with a maximum possible colon injury score of 12 (FIG. 12).
Alcian Blue/Fast red staining. Formalin fixed, paraffin embedded colon tissue sections were used for Alcian blue staining to evaluate crypt damage/goblet cell loss. […]

[3] = tested on: DSS-induced chronic colitis/IBD; experiment: DSS-induced chronic colitis/IBD mouse model; type: in vivo; settings: 50 mg/kg, PO, BID, started 72 hours after DSS, 4 weeks; for colon length: compared to DSS-vehicle cohort
Text: DSS is a sulfated polymer that alters tight junction proteins, leading to the disruption of the intestinal barrier, and is toxic to epithelial cells. Results obtained in DSS-induced animal IBD models have helped to understand the pathogenesis of IBD and to screen potential therapeutic agents. DSS-induced IBD is simple and reproducible and results in symptoms resembling those of ulcerative colitis. The development of acute, chronic, or relapsing symptoms of IBD is dose-dependent, and the molecular weight of the DSS is key not only in the induction of colitis but also in the location of induction. […] Various DSS dosage and duration are used to induce IBD in some animal models. Following DSS administration, animals usually develop colitis with weight loss and severe, bloody diarrhea. DSS colitis is characterized by mucosal ulceration, leukocyte infiltration, intestinal crypt distortion and epithelial hyperplasia.
Adult male CD-1 mice were fed 3% DSS in drinking water for 5 days with alternate cycles of normal drinking water for 5 days and continued a total of 3 DSS cycles in 4 weeks. This model has been established to induce chronic colitis/IBD. Vehicle (n=10/group) or Compound 1 (50 mg/kg, PO, BID) were administered 72 hours after DSS and continued treatment for 4 weeks, then all mice were sacrificed. A small group (n=6) with normal drinking water was included as a sham control. Gross morphological and histopathological end points were evaluated. Additionally, tissue from the middle colon (100 mg) from all groups was subjected to hydroxyproline assay for collagen estimation as a fibrotic end point.

TNBS-induced colitis [4] = experiment: TNBS-induced colitis mouse model, 50 mg/kg (Example 5); type: in vivo
Experimental: Using the same TNBS mouse model for IBD as described in Example 3, an experiment was performed with a 50 mg/kg dose of Compound 1, as described below.
Male CD-1 mice were infused with TNBS (2 mg/mouse) in 45% ethanol and 5% PBS in 150 μL volume through rectal enema under isoflurane anesthesia. A sham group (n=6) received an equal volume of 45% ethanol and PBS mixture.
Remaining TNBS mice (n=12/group) were randomized to vehicle or Compound 1 at 50 mg/kg, PO, BID for 3 days.

collagen levels = experiment: Antifibrotic activity, collagen levels (FIG. 23); settings: model not stated
[5] = 50 mg/kg, PO, BID for 3 days, started 72 hours after AA, compared to vehicle cohort
[6] = 15 mg/kg and 45 mg/kg, BID, PO, 4 days, started 3 days after TNBS
[7] = 15 mg/kg and 45 mg/kg, BID, PO, 4 days, compared to pre-treatment and vehicle treated animals
[8] = 50 mg/kg, PO, BID for 3 days, started 72 hours after TNBS, compared to vehicle cohort

COC(=O)c1ccc2c(n1)NC(=O)/C2=C(\Nc1ccc(N(C)C(=O)CN2CCN(C)CC2)cc1)c1ccccc1 [Compound 1, (Z)-methyl 3-(((4-(N-methyl-2-(4-methylpiperazin-1-yl)acetamido)phenyl)amino)(phenyl)methylene)-2-oxo-2,3-dihydro-1H-pyrrolo[2,3-b]pyridine-6-carboxylate]
decrease in colon length [1, 5]: significantly mitigated the decrease
gross morphological colon damage [1, 5]: significantly mitigated
histopathological colon damage (mucosal wall thickness, crypt/villi architecture) [1, 5]: significantly mitigated
AA-induced colitis (colon length, colon gross damage score, histopathological damage score, Alcian blue, H&E staining) ([1]; FIG. 2A-2E): significantly decreased
MPO-staining of colon tissue (TNBS-induced colitis [2]; 5 mg/kg and higher, BID, PO, 4 days, versus TNBS+vehicle treated animals): significantly decreased
body weight (TNBS-induced colitis [2]; [6]): significantly restored
colon length (TNBS-induced colitis [2]; [6]): significantly restored
colon weight (TNBS-induced colitis [2]; [6]): significantly restored
TNBS-induced goblet cell loss (Alcian Blue staining) (TNBS-induced colitis [2]; [7]): significantly reduced
colon histology (H&E histological scoring) (TNBS-induced colitis [2]; [7]): markedly improved
Disease Severity Index (TNBS-induced colitis [2]; 15 mg/kg and 45 mg/kg, BID, PO, 4 days, score 0 (normal)-4 (severe)): marked improvement
F4/80-staining of colon tissue (TNBS-induced colitis [2]; 15 mg/kg and higher, BID, PO, 4 days, versus TNBS+vehicle treated animals): significantly decreased
IBD symptoms (body weight, colon length, colon weight, disease severity index) (TNBS-induced colitis [2]; FIG. 5-9): recover from IBD symptoms
macroscopic colon damage score (appearance, inflammation, rectal bleeding) [3]: decreased
histopathological injury score (crypt damage, epithelial erosion, inflammatory cell infiltration) ([3]; H&E stained colon sections): decreased
colon length [3]: significantly increased
colon length ([3]; listed as test compound): significantly restored
colonic hydroxyproline (HYP) ([3]; middle colon tissue): decreased
colon architecture (Alcian blue staining for goblet cells of crypt/villi) (TNBS-induced colitis [4]; [8]): preserved
colon damage score (TNBS-induced colitis [4]; [8]): decreased
colon histopathological score (TNBS-induced colitis [4]; [8]): decreased
colon length (TNBS-induced colitis [4]; [8]): restored
mortality (TNBS-induced colitis [4]; [8]): significantly decreased
TNBS-induced increase in serum cytokines (interleukin-1α, TNFα, PDGF) (TNBS-induced colitis [4]; 50 mg/kg, PO, BID for 3 days, serum): significantly blocked
IBD symptoms (colon length, colon gross damage score, Alcian blue staining of goblet cells, colon histopathological score) (TNBS-induced colitis [4]; FIG. 25A-25F): recover from IBD symptoms
survival (TNBS-induced colitis [4]; TNBS induced colitis mortality model, FIG. 3): increased
collagen levels (antifibrotic activity) (collagen levels): reduced
